Our source for the cell viability values is patent publication US20260217656A1, “Compounds Affecting KRAS” (UNIVERSITAT DE BARCELONA, priority 2022, published 2026).

Each structure is given as a SMILES string.

The test system of the experiment is hTERT-RPE cells. Put plainly: MTS cell viability assay, hTERT-RPE. The class given is cell-based, human. The settings on record: non-transformed hTERT-RPE cells, at approximately 80 μM. The text has this: DLD-1 (KRASWT/G13D) (clone V15, #HD PAR-086) colorectal adenocarcinoma cell line and DLD-1 knockout of mutant KRAS allele, DLD-1 KO (KRASWT/−) (clone DWT7, #HD105-002), were obtained from Horizon Discovery Ltd. (Cambridge, UK). hTERT-RPE (KRASWT/WT) immortalized retinal pigment epithelial human cell line was obtained from the […] (ATCC). DLD-1 KO cells stably expressing HA-KRAS G12V were previously generated in our laboratory (Cabot et al., 2021). All cells were grown in DMEM-HAM s F12 (1:1) supplemented with 10% foetal bovine serum (Biological Industries, Israel), penicillin, streptomycin, and nonessential amino acids. Cells were tested once per month for mycoplasma contamination.
10,000 cells in 50 µL of 10% FBS-containing medium, were cultured for 24 hours and then treated with the compounds (50 μL final volume) for 48 h hours in each well of a 96-well plate (100 μL final volume). MTS viability assay (CellTiter 96® Aqueous One Solution Cell Proliferation Assay, Promega G3580) was assessed following the company conditions. The absorbance of each well was measured with a multimode plate reader (Spark, Tecan) at 490 nm. The percentage of cell viability was calculated by dividing the absorbance of each well by the average absorbance of the control wells. […]
On the technique in general: Tetrazolium assays rely on reduction of a dye to a coloured formazan, in cell work by metabolically active cells.

As for `COc1ccc(C(c2c(C)n[nH]c2O)c2c(C)n[nH]c2O)cc1Oc1ccc([N+](=O)[O-])cc1` [Example P14B], the cell viability result is on record as “not affected”.
